Several values for one entry are separate records, joined by “and”; a condition that tells them apart may be missing. Equal values may be shown once. Read-outs that look alike come from different tables or passages of the source.
Assays:
[1] = system: rat dorsal root ganglion (DRG) neurons; assay: Patch clamp inhibition of action potential of acutely isolated rat DRG neurons; type: cell-based; conditions: DRG neuron
Excerpt: In addition, the inventor used acutely isolated rat dorsal root ganglion (DRG) neurons as the experimental object, using patch clamp technology to investigate the inhibition effect of the compound represented by Formula 1 of the present invention on the neuronal excitability of the dorsal root ganglion.

[2] = system: corneal reflex in rabbits; assay: Anesthetic effect on the corneal surface of New Zealand rabbits (corneal reflex inhibition, CRI); type: in vivo, New Zealand white rabbits
Procedure: New Zealand white rabbits were weighed. […] A single administration of 3 mg/animal (100 μL) was performed on the surface of the eyeball, and the drug concentration was 3% (m/V) in each case (wherein a Tris solution was added to aspirin to facilitate dissolution). Each group included 12 rabbits. […] An equal volume of normal saline was dropped onto the right eyeball as the self-negative control. […] After 30 minutes of administration, it was tested every 15 minutes. After the corneal reflex returned to the pre-dose level, the test was stopped. By comparing the corneal reflex on the administration side and the self-negative control side, the effect of the compound on the corneal reflex after administration was judged. Corneal reflex inhibition (CRI) was used to evaluate the effect of drugs on corneal reflex. CRI was calculated as follows: […]

[3] = Physical and chemical properties (repose angle, solubility, acidity, dissociation constant); type: physicochemical
[4] = target: T1, Nav1.8 (Homo sapiens, UniProt Q9Y5Y9); assay: Inhibition of Nav1.8 channel current in HEK cells stably expressing Nav1.8; type: cell-based; conditions: HEK cells stably expressing Nav1.8, channel current
T1 construct: expressed in transfected cells
T1 sequence (Q9Y5Y9 whole entry): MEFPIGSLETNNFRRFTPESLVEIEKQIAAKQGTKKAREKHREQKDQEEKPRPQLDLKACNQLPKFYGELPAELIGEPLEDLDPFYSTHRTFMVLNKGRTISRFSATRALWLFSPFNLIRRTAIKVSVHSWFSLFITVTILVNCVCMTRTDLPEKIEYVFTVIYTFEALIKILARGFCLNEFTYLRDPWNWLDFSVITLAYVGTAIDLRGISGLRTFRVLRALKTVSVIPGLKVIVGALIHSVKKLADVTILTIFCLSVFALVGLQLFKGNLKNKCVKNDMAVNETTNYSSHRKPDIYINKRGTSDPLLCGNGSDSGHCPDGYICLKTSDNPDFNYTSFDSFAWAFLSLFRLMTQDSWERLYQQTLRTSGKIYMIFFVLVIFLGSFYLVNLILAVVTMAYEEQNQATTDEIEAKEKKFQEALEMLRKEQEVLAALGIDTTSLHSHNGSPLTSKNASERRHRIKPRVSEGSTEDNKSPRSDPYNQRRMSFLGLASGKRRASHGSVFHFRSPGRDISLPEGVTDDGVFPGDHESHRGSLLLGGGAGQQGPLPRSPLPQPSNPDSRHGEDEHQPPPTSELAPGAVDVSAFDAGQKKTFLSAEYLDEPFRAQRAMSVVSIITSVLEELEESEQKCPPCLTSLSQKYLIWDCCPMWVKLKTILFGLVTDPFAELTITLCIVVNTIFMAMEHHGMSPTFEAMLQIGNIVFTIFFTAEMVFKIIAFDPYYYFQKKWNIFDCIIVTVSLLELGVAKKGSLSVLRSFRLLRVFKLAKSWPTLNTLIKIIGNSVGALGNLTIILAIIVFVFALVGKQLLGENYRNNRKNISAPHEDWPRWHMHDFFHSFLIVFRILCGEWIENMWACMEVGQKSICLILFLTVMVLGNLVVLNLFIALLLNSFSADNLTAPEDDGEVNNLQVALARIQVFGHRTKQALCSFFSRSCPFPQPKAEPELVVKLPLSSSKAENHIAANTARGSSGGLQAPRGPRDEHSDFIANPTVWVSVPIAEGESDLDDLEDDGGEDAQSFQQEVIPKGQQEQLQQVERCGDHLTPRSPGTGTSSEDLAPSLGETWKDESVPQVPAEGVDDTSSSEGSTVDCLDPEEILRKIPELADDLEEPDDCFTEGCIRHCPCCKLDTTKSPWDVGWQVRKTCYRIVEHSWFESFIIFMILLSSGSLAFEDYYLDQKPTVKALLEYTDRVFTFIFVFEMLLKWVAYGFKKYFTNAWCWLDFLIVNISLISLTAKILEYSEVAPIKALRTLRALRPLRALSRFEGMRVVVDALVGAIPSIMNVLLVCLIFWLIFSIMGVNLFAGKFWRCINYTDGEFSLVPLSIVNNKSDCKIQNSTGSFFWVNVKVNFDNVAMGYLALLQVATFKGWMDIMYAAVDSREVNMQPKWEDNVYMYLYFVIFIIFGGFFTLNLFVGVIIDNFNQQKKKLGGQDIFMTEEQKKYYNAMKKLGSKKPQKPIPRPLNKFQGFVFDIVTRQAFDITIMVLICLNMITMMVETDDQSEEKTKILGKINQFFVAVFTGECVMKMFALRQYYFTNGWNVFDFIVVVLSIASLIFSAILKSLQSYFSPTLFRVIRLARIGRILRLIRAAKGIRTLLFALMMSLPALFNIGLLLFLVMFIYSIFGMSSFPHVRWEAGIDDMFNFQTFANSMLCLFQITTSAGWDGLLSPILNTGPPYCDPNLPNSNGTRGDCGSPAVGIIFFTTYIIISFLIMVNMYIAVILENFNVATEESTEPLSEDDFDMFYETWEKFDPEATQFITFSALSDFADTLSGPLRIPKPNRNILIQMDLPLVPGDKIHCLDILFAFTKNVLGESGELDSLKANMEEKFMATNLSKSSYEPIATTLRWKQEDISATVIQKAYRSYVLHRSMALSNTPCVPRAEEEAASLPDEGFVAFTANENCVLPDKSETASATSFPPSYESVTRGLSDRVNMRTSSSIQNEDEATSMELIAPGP

[5] = Stability of aqueous solution at 2-8° C. (HPLC); type: physicochemical; conditions: for Main Drug, %: aqueous solution 5 g in 50 mL sterile water; for Main Drug, % / Salicylic acid, % (impurity) / Salicylic acid-(2-diethylaminoethyl ester) hydrochloride, % (impurity) / Acetylsalicylic acid, % (impurity): 2-8° C.; for Salicylic acid, % (impurity) / Salicylic acid-(2-diethylaminoethyl ester) hydrochloride, % (impurity) / Acetylsalicylic acid, % (impurity): aqueous solution
[6] = target: T2, Nav1.7 (Homo sapiens, UniProt Q15858); assay: Inhibition of Nav1.7 channel current in CHO cells stably expressing Nav1.7; type: cell-based; conditions: CHO cells stably expressing Nav1.7, channel current
T2 construct: expressed in transfected cells
T2 sequence (Q15858 whole entry): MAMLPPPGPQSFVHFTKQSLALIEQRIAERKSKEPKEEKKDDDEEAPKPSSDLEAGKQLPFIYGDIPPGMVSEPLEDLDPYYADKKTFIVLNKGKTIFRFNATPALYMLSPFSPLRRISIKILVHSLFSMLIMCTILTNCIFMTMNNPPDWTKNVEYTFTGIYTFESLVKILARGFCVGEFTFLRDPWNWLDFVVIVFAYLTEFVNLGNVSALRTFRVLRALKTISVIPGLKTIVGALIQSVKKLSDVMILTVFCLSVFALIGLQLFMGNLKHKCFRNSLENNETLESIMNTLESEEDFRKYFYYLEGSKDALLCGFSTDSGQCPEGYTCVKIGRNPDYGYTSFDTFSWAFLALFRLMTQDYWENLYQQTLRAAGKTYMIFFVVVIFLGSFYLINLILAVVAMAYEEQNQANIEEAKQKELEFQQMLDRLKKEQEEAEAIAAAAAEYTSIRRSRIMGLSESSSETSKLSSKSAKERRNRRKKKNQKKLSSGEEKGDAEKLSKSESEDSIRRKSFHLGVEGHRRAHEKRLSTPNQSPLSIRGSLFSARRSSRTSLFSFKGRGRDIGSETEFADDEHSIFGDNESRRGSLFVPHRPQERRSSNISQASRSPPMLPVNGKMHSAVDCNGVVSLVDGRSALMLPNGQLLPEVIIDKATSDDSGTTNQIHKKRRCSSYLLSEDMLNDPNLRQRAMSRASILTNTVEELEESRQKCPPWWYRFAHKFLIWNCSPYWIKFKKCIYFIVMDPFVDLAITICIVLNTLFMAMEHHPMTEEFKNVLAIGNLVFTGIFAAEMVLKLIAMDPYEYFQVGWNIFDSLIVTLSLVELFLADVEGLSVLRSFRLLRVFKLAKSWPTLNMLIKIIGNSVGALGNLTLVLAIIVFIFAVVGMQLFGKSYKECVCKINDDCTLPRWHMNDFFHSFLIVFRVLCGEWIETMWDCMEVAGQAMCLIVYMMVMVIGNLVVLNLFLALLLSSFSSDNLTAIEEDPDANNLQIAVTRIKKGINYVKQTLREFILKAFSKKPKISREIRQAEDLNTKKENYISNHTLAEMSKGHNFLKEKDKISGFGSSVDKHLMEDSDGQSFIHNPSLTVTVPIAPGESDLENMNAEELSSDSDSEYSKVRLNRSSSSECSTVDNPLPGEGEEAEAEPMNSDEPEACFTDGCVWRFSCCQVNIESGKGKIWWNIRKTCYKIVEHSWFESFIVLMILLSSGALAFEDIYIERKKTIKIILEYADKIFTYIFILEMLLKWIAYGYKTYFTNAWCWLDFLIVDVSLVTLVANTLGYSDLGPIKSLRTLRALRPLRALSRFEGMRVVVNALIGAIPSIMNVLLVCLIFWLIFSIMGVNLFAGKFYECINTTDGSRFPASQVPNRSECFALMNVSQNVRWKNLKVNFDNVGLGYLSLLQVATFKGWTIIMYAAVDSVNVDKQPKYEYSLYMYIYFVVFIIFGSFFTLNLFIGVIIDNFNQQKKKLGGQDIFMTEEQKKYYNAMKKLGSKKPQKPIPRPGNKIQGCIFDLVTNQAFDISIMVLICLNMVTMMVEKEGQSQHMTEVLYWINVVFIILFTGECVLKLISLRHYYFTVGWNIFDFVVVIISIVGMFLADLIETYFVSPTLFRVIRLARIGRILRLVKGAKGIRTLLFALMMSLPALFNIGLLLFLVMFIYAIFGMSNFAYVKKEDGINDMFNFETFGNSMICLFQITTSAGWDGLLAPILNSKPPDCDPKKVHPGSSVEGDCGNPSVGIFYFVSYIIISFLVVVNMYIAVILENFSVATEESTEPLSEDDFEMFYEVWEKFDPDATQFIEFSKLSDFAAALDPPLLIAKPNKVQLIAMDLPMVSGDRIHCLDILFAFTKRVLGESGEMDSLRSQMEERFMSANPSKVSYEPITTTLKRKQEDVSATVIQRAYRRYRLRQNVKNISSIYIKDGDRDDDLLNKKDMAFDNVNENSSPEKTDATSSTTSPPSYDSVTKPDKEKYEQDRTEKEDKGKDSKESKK

[7] = target: T1, Nav1.8; conditions: reported by a literature; cited from earlier work
[8] = target: T2, Nav1.7; conditions: reported by a literature; cited from earlier work
[9] = 3% (m/V), 100 μL on left eyeball, 0 min, mean ± SD
[10] = 3% (m/V), 100 μL on left eyeball, 10 min after administration, mean ± SD
[11] = 3% (m/V), 100 μL on left eyeball, 15 min after administration, mean ± SD
[12] = 3% (m/V), 100 μL on left eyeball, 20 min after administration, mean ± SD
[13] = 3% (m/V), 100 μL on left eyeball, 25 min after administration, mean ± SD
[14] = 3% (m/V), 100 μL on left eyeball, 30 min after administration, mean ± SD
[15] = 3% (m/V), 100 μL on left eyeball, 45 min after administration, mean ± SD
[16] = 3% (m/V), 100 μL on left eyeball, 60 min after administration, mean ± SD
[17] = ophthalmic administration, 3% (m/V), rabbits
[18] = 3% (m/V), 100 μL on left eyeball, 5 min after administration, mean ± SD

For `CCN(CC)CCOC(=O)c1ccccc1OC(C)=O.Cl` [2-(diethylamino)-ethyl-2-acetoxybenzoate hydrochloride], the IC50 [1] was 34.6 µM, the “CRI (%)” value [2, 9] was 0.0 ± 0.0% and the “CRI (%)” value ([2]; 3% (m/V), 100 μL on left eyeball, 5 min after administration; mean ± SD; hydrochloride)) was 99.1 ± 2.0%. The “CRI (%)” value [2, 10] was 97.2 ± 2.9%, the “CRI (%)” value [2, 11] was 96.7 ± 6.5% and the “CRI (%)” value [2, 12] was 86.7 ± 9.8%. For the same compound, the “CRI (%)” value [2, 13] was 77.5 ± 2.9%, the “CRI (%)” value [2, 14] was 57.5 ± 12.2% and the “CRI (%)” value [2, 15] was 12.2 ± 12.4%. The “CRI (%)” value [2, 16] was 0.0 ± 0.0%, the “local anesthetic effect (in words)” value [2, 17] was “had a local anesthesia effect for ophthalmic administration, with quick onset” and the Dissociation constant [3] was 8.82. For the same compound, the Repose angle [3] was 42°, the “Acidity: pH value of the 2% aqueous solution” value ([3]; 2% aqueous solution at 25 ± 0.5° C.) was “product at 25 ± 0.5 °C is 4.0-6.0” and the Solubility in acetone ([3]; acetone) was “slightly soluble”. For the same compound, the Solubility in ether ([3]; ether) was “insoluble”, the “Solubility in ethyl acetate” value ([3]; ethyl acetate) was “insoluble” and the Solubility in water ([3]; water) was “extremely soluble”. The IC50 [4] was 74.6 µM, the “Main Drug, %” value ([5]; month 0) was 99.48% and the “Main Drug, %” value ([5]; month 0.5) was 99.32%. For the same compound, the “Main Drug, %” value ([5]; month 1) was 97.59%, the “Main Drug, %” value ([5]; month 2) was 94.86% and the “Main Drug, %” value ([5]; month 3, hydrochloride) was 86% and 86.55%. The “Salicylic acid, % (impurity)” value ([5]; month 0) was 0.0028%, the “Salicylic acid-(2-diethylaminoethyl ester) hydrochloride, % (impurity)” value ([5]; month 0) was 0.51% and the “Salicylic acid, % (impurity)” value ([5]; month 0.5) was 0.0035%. The “Salicylic acid-(2-diethylaminoethyl ester) hydrochloride, % (impurity)” value ([5]; month 0.5) was 0.67%, the “Acetylsalicylic acid, % (impurity)” value ([5]; month 1) was 0.018% and the “Salicylic acid, % (impurity)” value ([5]; month 1) was 0.0044%. For the same compound, the “Salicylic acid-(2-diethylaminoethyl ester) hydrochloride, % (impurity)” value ([5]; month 1) was 2.38%, the “Acetylsalicylic acid, % (impurity)” value ([5]; month 2) was 0.033% and the “Salicylic acid, % (impurity)” value ([5]; month 2) was 0.012%. For the same compound, the “Salicylic acid-(2-diethylaminoethyl ester) hydrochloride, % (impurity)” value ([5]; month 2) was 5.09%, the “Acetylsalicylic acid, % (impurity)” value ([5]; month 3) was 0.042% and the “Salicylic acid, % (impurity)” value ([5]; month 3) was 0.049%. The “stability in solution (in words)” value ([5]; solution state) was “did not meet the general requirements for chemical drug stability” and the IC50 [6] was 17.7 µM.

With `CC(=O)Oc1ccccc1C(=O)O` [Aspirin, aspirin] the “CRI (%)” value [2, 9] was 0.0 ± 0.0%, the “CRI (%)” value [2, 18] was 0.0 ± 0.0% and the “CRI (%)” value [2, 10] was 0.0 ± 0.0%. The “CRI (%)” value [2, 11] was 0.0 ± 0.0%, the “CRI (%)” value [2, 12] was 0.0 ± 0.0% and the “CRI (%)” value [2, 13] was 0.0 ± 0.0%. The “CRI (%)” value [2, 14] was 0.0 ± 0.0%, the “CRI (%)” value [2, 15] was 0.0 ± 0.0% and the “CRI (%)” value [2, 16] was 0.0 ± 0.0%. The “CRI (%)” value ([2]; no time point stated) was 0.0±0.0% and the “local anesthetic effect (in words)” value [2, 17] was “no local anesthetic effect at all”.

With `CCN(CC)CC(=O)Nc1c(C)cccc1C` [Lidocaine, lidocaine] the IC50 [1] was 37.1 µM, the “CRI (%)” value [2, 9] was 0.0 ± 0.0% and the “CRI (%)” value [2, 18] was 98.3 ± 3.9%. For the same compound, the “CRI (%)” value [2, 10] was 95.0 ± 10.0%, the “CRI (%)” value [2, 11] was 91.7 ± 15.3% and the “CRI (%)” value [2, 12] was 86.7 ± 21.0%. For the same compound, the “CRI (%)” value [2, 13] was 82.5 ± 27.3%, the “CRI (%)” value [2, 14] was 70.0 ± 27.3% and the “CRI (%)” value [2, 15] was 32.5 ± 30.5%. For the same compound, the “CRI (%)” value [2, 16] was 0.0 ± 0.0%, the IC50 [7] was 104 µM and the IC50 [8] was 450 µM.

For `O=C([O-])c1ccccc1O.[Na+]` [Sodium salicylate, sodium salicylate], the “CRI (%)” value ([2]; rabbit, in vivo) was 0.0±0.0% and the “local anesthetic effect (in words)” value ([2]; rabbit, in vivo) was “no local anesthetic effect at all”.
